These results are taken from paper PMC5796017, “Enantiomeric Effect of D-Amino Acid Substitution on the Mechanism of Action of α-Helical Membrane-Active Peptides” (International Journal of Molecular Sciences, 2017).

For data set [1], the system named is human red blood (hRBC) cells. The data set can be described thus: Hemolytic activity assay. Conditions: 2% human RBC in PBS, 37 °C, 2 h, absorbance 578 nm, triplicate. In kind it is cell-based. The method, then: The […] of the peptides was measured by a hemolytic activity assay as described previously. Briefly, healthy human RBCs were collected using an anticoagulation tube with EDTAK2 and centrifuged at 1000 rpm for 5 min. The erythrocytes were washed three times, then diluted to a concentration of 2% in phosphate-buffered saline (PBS). The peptides were serially diluted in PBS and 70 μL of the peptide solutions and 2% RBC suspension were added simultaneously to each well of a 96-well plate (round bottom) for a further incubation at 37 °C for 2 h. Then, the plates were centrifuged for 10 min at 3000 rpm and the supernatant (90 μL) was transferred to a 96-well plate (flat bottom). The absorbance of the supernatant was measured on a microplate reader at 578 nm. Erythrocytes in PBS and distilled water were used as the negative (0%) and positive (100%) controls, respectively. The hemolytic activity was calculated as the percentage of experimental group over positive control (100%), after subtraction of negative control (0%). The hemolytic assays were repeated in triplicate.

Data set [2] concerns P. aeruginosa ATCC27853. Briefly: Antimicrobial activity, microtiter dilution MIC. The format is cell-based, Pseudomonas aeruginosa. Conditions: G−; MH medium, 5 × 10^5 CFU/mL, 37 °C, 24 h, triplicate. The method, then:
(§1) The antimicrobial activity of the peptides was determined by the standard microtiter dilution method and indicated as MIC (minimal inhibitory concentration) as described previously. Briefly, bacteria were cultured in Mueller–Hinton (MH) medium overnight at 37 °C, diluted to a final inoculum of 5 × 10^5 colony-forming units (CFU)/mL with MH and loaded into 96-well microtiter plates (90 μL/well) with serial dilution of peptides (10 μL/well), with a further incubation at 37 °C for 24 h. MIC was expressed as the lowest peptide concentration that inhibited the growth of bacteria. The antimicrobial assays were repeated in triplicate.

In data set [3] the test system is S. epidermidis ATCC12228. The data set can be described thus: Antimicrobial activity, microtiter dilution MIC. Conditions: G+; MH medium, 5 × 10^5 CFU/mL, 37 °C, 24 h, triplicate. In kind it is cell-based, Staphylococcus epidermidis. The method, then: as §1
The nature of data set [4]: RP-HPLC retention time as relative hydrophobicity. The format is physicochemical. Conditions: 25 °C, used by the paper as measure of relative hydrophobicity. The method, then: The RP-HPLC retention time has been widely used to represent the relative hydrophobicity of peptides in many studies.The relative hydrophobicity of the peptides was determined by the RP-HPLC retention times at 25 °C. The change in hydrophobicity of the peptides caused by D-amino acid substitutions was mainly due to the disruption of the helical structure.

For data set [5], the system named is HPAC. The data set can be described thus: MTT cell viability assay. In kind it is cell-based, human. Conditions: 24 h, mean ± SEM of three independent determinations. The method, then: (§2) HeLa, MIA PaCa-2, HPAC, and Bxpc-3 cells were maintained in Dulbecco’s modified Eagle medium) with 10% fetal bovine serum, penicillin (100 U/mL), and streptomycin ([…]) in a humid atmosphere at 37 °C with 5% CO2. The effect of the peptides on the survival of HeLa, MIA PaCa-2, HPAC, and Bxpc-3 cells was determined by 3-(4,5-dimethyl-2-thiazolyl)-2,5-diphenyl-2H-tetrazolium bromide (MTT) assay, as described in a previous study. Briefly, cells were seeded in 96-well plates at a density of 5000 per well. After overnight incubation, cells were incubated, in the absence, or presence of various concentrations of peptides for 24 h. Then, the formazan crystals formed by MTT were dissolved with dimethyl sulfoxide (DMSO) and the absorbance was determined at 492 nm with a microplate reader (GF-M3000; Gaomi Caihong Analytical Instruments Co., Shandong, China). The results were expressed as IC50 values, representing the concentration at which cell viability was reduced by 50%. The cytotoxicity assays were repeated in triplicate.

Data set [6] relates to MIA PaCa-2. The data set can be described thus: MTT cell viability assay. In kind it is cell-based, human. Conditions: MIA PaCa-2, MTT, 24 h; mean ± SEM of three independent determinations. The method, then:
as §2

For data set [7], the system named is HeLa. Briefly: MTT cell viability assay. In kind it is cell-based, human. Conditions: 24 h, mean ± SEM of three independent determinations. The method, then: as §2
The subject of data set [8] is BxPC-3. The data set can be described thus: MTT cell viability assay. Conditions: BxPC-3, MTT, 24 h; mean ± SEM of three independent determinations. In kind it is cell-based, human. The method, then:
as §2
For orientation: Tetrazolium dyes change colour on reduction, which living cells bring about.

For data set [9], the system named is E. coli ATCC25922. Briefly: Outer membrane permeability assay (NPN uptake). Conditions: 16 μM peptide, 10 min, excitation 350 nm, emission 420 nm. The format is cell-based, Escherichia coli. From the text: To explore the potential role of the helicity of the peptides in damaging cell membranes, we investigated the disruption of the outer membrane of Escherichia coli (E. coli) by quantifying the fluorescence intensity of 1-N-phenylnaphthylamine (NPN), which is a hydrophobic fluorescent probe. The intensity of NPN is weak in a hydrophilic environment. The fluorescence intensity of NPN gradually increases as it is exposed to a more hydrophobic environment due to damage to the bacterial outer membrane by MAPs.
The outer membrane permeability of the peptides against E. coli ATCC25922 was evaluated using the hydrophobic fluorescent probe NPN, as performed previously. In brief, E. coli was cultured in LB medium at 37 °C until the absorbance of the bacterial suspension at 600 nm was 0.4–0.6, the bacterial pellet was collected by centrifugation and resuspended in a reaction buffer (pH 7.4, 5 mM HEPES, 5 mM NaN3, 0.25 mM NPN) until the absorbance at 600 nm was 0.5. Then, an aliquot of the peptide sample and the bacterial suspension were co-incubated to give a final peptide concentration of 16 μM. The same volume of reaction buffer was used as the negative control. A Shimadzu RF-5301 PC fluorescent spectrometer (excitation wavelength of 350 nm, emission wavelength of 420 nm) was used to collect data continuously for 10 min.

The test system of data set [10] is E. coli ATCC25922. The data set can be described thus: Antimicrobial activity, microtiter dilution MIC. The format is cell-based, Escherichia coli. Conditions: G−; MH medium, 5 × 10^5 CFU/mL, 37 °C, 24 h, triplicate. The method, then:
as §1

In data set [11] the test system is S. aureus ATCC25923. Briefly: Antimicrobial activity, microtiter dilution MIC. The format is cell-based, Staphylococcus aureus. Conditions: G+; MH medium, 5 × 10^5 CFU/mL, 37 °C, 24 h, triplicate. The method, then: as §1
A short description of data set [12]: Circular dichroism (CD) secondary structure. In kind it is physicochemical. The text has this:
The influence of the amino acid substitutions on the peptide secondary structure were investigated using circular dichroism (CD) spectroscopy under benign conditions (KP buffer) and under conditions designed to mimic the hydrophobic environment of the membrane (KP buffer with 50% TFE). D-amino acid substitutions reduced the helicity of the peptide analogs relative to that of peptide V13K, in both KP buffer and KP buffer with 50% TFE. […] As shown in Table 2 and Figure S1, the values of the relative helicity of peptides with polar face substitutions are in the order of K14D (76.99%) > S11D/K14D (51.33%) > S11D/K14D/T15D (38.67%). Similarly, the relative helicity of the peptides with substitutions on the non-polar face follows the same trend: A12D (70.83%) > F9D/A12D (38.26%) > F9D/A12D/V16D (36.41%). Since the values of the relative helicity of the peptides with D-amino acid substitutions on the non-polar face were less than those peptide analogs with the same number of D-amino acid substitutions on the polar face, it is clear that the amino acid residues on the non-polar face may be more important for stabilizing the α-helical structure than residues on the polar face.
The secondary structures of the peptides were examined using a Jasco J-810 CD spectrometer (Jasco, Easton, MD, USA) at 25 °C as described previously. […] The mean residue molar ellipticities were calculated according to the equation [θ] = θ/10lCMn, in which, θ represents the ellipticity in millidegrees, l is the optical path length of the cuvette in centimeters, CM is the peptide concentration in mol/L, and n is the number of residues in the peptide. The mean residue molar ellipticities at 222 nm, [θ]222 (degree·cm^2·dmol^−1), were used to calculate the relative helical content of the peptides.
(CD spectra are sensitive to the conformation of chiral molecules.)

The term MIC denotes the least concentration at which growth counts as inhibited. Low values mean inhibition by little substance, high ones a need for much substance. Usually IC50 stands for the concentration that gives 50% inhibition. A low value points to greater potency.

Converted amounts (≈) assume the structure as drawn.

Regarding `CC[C@H](C)[C@H](NC(=O)[C@H](C)NC(=O)[C@H](CCCCN)NC(=O)[C@H](CC(C)C)NC(=O)[C@H](C)NC(=O)[C@@H](NC(=O)[C@H](Cc1c[nH]cn1)NC(=O)[C@H](CC(C)C)NC(=O)[C@@H](NC(=O)[C@@H](NC(=O)[C@@H](CCCCN)NC(=O)[C@H](CCCCN)NC(=O)[C@H](C)NC(=O)[C@H](CO)NC(=O)[C@H](CCCCN)NC(=O)[C@H](Cc1ccccc1)NC(=O)[C@@H](NC(=O)[C@H](CCCCN)NC(=O)[C@H](CC(C)C)NC(=O)[C@H](Cc1ccccc1)NC(=O)[C@H](CO)NC(=O)[C@H](CCCCN)NC(=O)[C@H](Cc1c[nH]c2ccccc12)NC(=O)[C@H](CCCCN)NC(C)=O)[C@@H](C)O)[C@@H](C)O)C(C)C)[C@@H](C)O)C(=O)N[C@@H](CO)C(=O)N[C@@H](CO)C(N)=O` [Peptide K14D], in data set [1], the “MHC (minimal hemolytic concentration)” value was 125 µM. The MIC in data set [2] worked out at 16 µM (≈ 47.9 µg/mL); in data set [3], 16 µM (≈ 47.9 µg/mL); in data set [10], 32 µM (≈ 95.7 µg/mL); in [11], 32 µM (≈ 95.7 µg/mL). Moreover, the “tR (RP-HPLC retention time), relative hydrophobicity” value in data set [4] came to 41.93 min. Further, the IC50 turned out to be 7.2 ± 5.2 µM in data set [5], 17.9 ± 2.3 µM in data set [6], 15.6 ± 4.1 µM in data set [7] and 20 ± 0.8 µM in data set [8]. Further, in data set [9], the “Outer membrane permeabilization, NPN fluorescence intensity” value is recorded as “enhanced”. In data set [12] (CD, KP buffer (100 mM KCl, 50 mM KH2PO4/K2HPO4, pH 7.4), 75 μM peptide, 25 °C), the “[θ]222, benign” value is on record as −2223.13 degree·cm^2·dmol^−1. The “[θ]222, 50% TFE” value in data set [12] (CD, KP buffer with 50% TFE, 75 μM peptide, 25 °C) was −38,897.2 degree·cm^2·dmol^−1. For the same molecule, the “α-Helix (%), 50% TFE (relative helicity)” value in data set [12] (KP buffer with 50% TFE, relative to molar ellipticity of V13K in 50% TFE) worked out at 76.99%. Also, the “α-Helix (%), benign” value in [12] (KP buffer, relative to molar ellipticity of V13K in 50% TFE) is reported as 4.4%.
